Data on 25 molecules can be found in ChEMBL document CHEMBL4304831, “Chalcone-Thiazole Hybrids: Rational Design, Synthesis, and Lead Identification against 5-Lipoxygenase” (ACS Med Chem Lett, 2019).

The nature of data set [1]: Antioxidant activity assessed as DPPH radical scavenging activity at 10 uM after 30 mins under dark condition relative to control. In kind it is functional.
Data set [2] concerns the target T1, Polyunsaturated fatty acid 5-lipoxygenase (Homo sapiens) (UniProt P09917).
T1 sequence (whole entry): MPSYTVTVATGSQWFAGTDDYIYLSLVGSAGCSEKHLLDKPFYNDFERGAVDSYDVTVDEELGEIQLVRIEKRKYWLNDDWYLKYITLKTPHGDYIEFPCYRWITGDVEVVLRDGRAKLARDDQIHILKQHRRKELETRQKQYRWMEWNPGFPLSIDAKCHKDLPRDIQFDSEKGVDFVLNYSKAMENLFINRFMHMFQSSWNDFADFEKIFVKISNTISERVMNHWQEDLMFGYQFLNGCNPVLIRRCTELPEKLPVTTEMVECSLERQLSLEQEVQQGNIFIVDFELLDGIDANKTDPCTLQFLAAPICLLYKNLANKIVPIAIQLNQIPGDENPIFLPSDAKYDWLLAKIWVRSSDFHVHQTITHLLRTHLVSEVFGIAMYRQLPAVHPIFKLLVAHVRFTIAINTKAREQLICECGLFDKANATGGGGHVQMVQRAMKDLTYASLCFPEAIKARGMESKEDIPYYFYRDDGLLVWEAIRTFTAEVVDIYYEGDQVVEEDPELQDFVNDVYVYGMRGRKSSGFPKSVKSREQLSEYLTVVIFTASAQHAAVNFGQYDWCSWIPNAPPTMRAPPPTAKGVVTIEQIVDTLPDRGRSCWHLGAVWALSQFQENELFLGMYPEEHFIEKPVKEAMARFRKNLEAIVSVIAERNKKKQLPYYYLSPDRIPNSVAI
As to the kind of experiment: Inhibition of human recombinant 5-LOX expressed in Escherichia coli BL21 assessed as conversion of arachidonic acid to 5-HPETE at 10 uM using arachidonic acid as substrate in presence of ATP by UV-vis spectrophotometry analysis relative to control.

The target of data set [3] is T2, Polyunsaturated fatty acid 5-lipoxygenase (Homo sapiens, UniProt P09917).
T2 sequence (P09917 whole entry): T1 sequence (whole entry)
Put plainly: Inhibition of human recombinant 5-LOX expressed in Escherichia coli BL21 assessed as conversion of arachidonic acid to 5-HPETE using arachidonic acid as substrate in presence of ATP by UV-vis spectrophotometry analysis.

In data set [4] the target is T1, Polyunsaturated fatty acid 5-lipoxygenase (Homo sapiens). Put plainly: Inhibition of human recombinant 5-LOX pseudoperoxidase activity expressed in Escherichia coli BL21 assessed as compound redox activity by measuring change in absorption at 10 uM using 13(S)-HpODE as substrate in presence of ATP by UV-vis spectrophotometric method relative to control. Further details: scale not given: the % may be the effect or the level left.

Compound in data set [5]: COc1cc(/C=C/C(=O)c2sc(NC(=O)c3ccccc3)nc2C)cc(OC)c1OC
As to the kind of experiment: Noncompetitive inhibition of human recombinant 5-LOX expressed in Escherichia coli BL21 assessed as Km for substrate at 2 uM using varying levels arachidonic acid as substrate by Lineweaver-Burk plot analysis (reference value: 1.9 +/- 0.4 uM).

Compound in data set [6]: COc1cc(/C=C/C(=O)c2sc(NC(=O)c3ccccc3)nc2C)cc(OC)c1OC
As to the kind of experiment: Noncompetitive inhibition of human recombinant 5-LOX expressed in Escherichia coli BL21 assessed as Km for substrate at 5 uM using varying levels arachidonic acid as substrate by Lineweaver-Burk plot analysis (reference value: 1.9 +/- 0.4 uM).

Compound in data set [7]: COc1cc(/C=C/C(=O)c2sc(NC(=O)c3ccccc3)nc2C)cc(OC)c1OC
Put plainly: Noncompetitive inhibition of human recombinant 5-LOX expressed in Escherichia coli BL21 assessed as decrease in Vmax for substrate at 2 uM using varying levels arachidonic acid as substrate by Lineweaver-Burk plot analysis (reference value: 0.38 +/- 0.02 nmol/min).

Compound in data set [8]: COc1cc(/C=C/C(=O)c2sc(NC(=O)c3ccccc3)nc2C)cc(OC)c1OC
As to the kind of experiment: Noncompetitive inhibition of human recombinant 5-LOX expressed in Escherichia coli BL21 assessed as decrease in Vmax for substrate at 5 uM using varying levels arachidonic acid as substrate by Lineweaver-Burk plot analysis (reference value: 0.38 +/- 0.02 nmol/min).

Compound in data set [9]: COc1ccc(C(=O)Nc2nc(C)c(C(=O)/C=C/c3ccc(C)cc3)s2)cc1
Put plainly: (§1) Competitive inhibition of human recombinant 5-LOX expressed in Escherichia coli BL21 assessed as Vmax for substrate at 2 uM using varying levels arachidonic acid as substrate by Lineweaver-Burk plot analysis (reference value: 0.33 to 0.45 +/- 0.01 nmol/min).

Compound in data set [10]: Cc1nc(NC(=O)c2ccccc2)sc1C(=O)/C=C/c1cc2c(cc1Br)OCO2
The description is as §1.

Compound in data set [11]: COc1ccc(C(=O)Nc2nc(C)c(C(=O)/C=C/c3ccc(C)cc3)s2)cc1
As to the kind of experiment: (§2) Competitive inhibition of human recombinant 5-LOX expressed in Escherichia coli BL21 assessed as Vmax for substrate at 5 uM using varying levels arachidonic acid as substrate by Lineweaver-Burk plot analysis (reference value: 0.33 to 0.45 +/- 0.01 nmol/min).

Compound in data set [12]: Cc1nc(NC(=O)c2ccccc2)sc1C(=O)/C=C/c1cc2c(cc1Br)OCO2
The description is as §2.

Compound in data set [13]: COc1ccc(C(=O)Nc2nc(C)c(C(=O)/C=C/c3ccc(C)cc3)s2)cc1
As to the kind of experiment: (§3) Competitive inhibition of human recombinant 5-LOX expressed in Escherichia coli BL21 assessed as increase in Km for substrate at 2 uM using varying levels arachidonic acid as substrate by Lineweaver-Burk plot analysis (reference value: 0.31 to 0.35 +/- 0.08 to 0.10 uM).

Compound in data set [14]: Cc1nc(NC(=O)c2ccccc2)sc1C(=O)/C=C/c1cc2c(cc1Br)OCO2
The data set is described as §3.

Compound in data set [15]: COc1ccc(C(=O)Nc2nc(C)c(C(=O)/C=C/c3ccc(C)cc3)s2)cc1
As to the kind of experiment: (§4) Competitive inhibition of human recombinant 5-LOX expressed in Escherichia coli BL21 assessed as increase in Km for substrate at 5 uM using varying levels arachidonic acid as substrate by Lineweaver-Burk plot analysis (reference value: 0.31 to 0.35 +/- 0.08 to 0.10 uM).

Compound in data set [16]: Cc1nc(NC(=O)c2ccccc2)sc1C(=O)/C=C/c1cc2c(cc1Br)OCO2
The description is as §4.

Turning to `CC(c1cc2ccccc2s1)N(O)C(N)=O` (centres undefined), in [1], the Activity amounted to 10.3%.
As usually defined, the inhibition is the drop in the measured response relative to a control, in per cent. As for `Cc1ccc(/C=C/C(=O)c2sc(NC(=O)c3ccccc3)nc2C)cc1`, in data set [2], the inhibition was 75.1%. Further, the Activity in [1] worked out at 3%.
For `Cc1nc(NC(=O)c2ccccc2)sc1C(=O)/C=C/c1ccc(Br)cc1`, in that order: 52.3% and 2.4%.
For `Cc1nc(NC(=O)c2ccccc2)sc1C(=O)/C=C/c1ccc(Cl)cc1`, in that order: 63.7% and 8.8%.
Turning to `Cc1nc(NC(=O)c2ccccc2)sc1C(=O)/C=C/c1cccs1`, the inhibition in data set [2] was 71.9%. Besides, in [1], the Activity was found to be 2.2%.
As a reminder, the IC50 is the concentration that gives 50% inhibition. Regarding `COc1cc(/C=C/C(=O)c2sc(NC(=O)c3ccccc3)nc2C)cc(OC)c1OC`, the inhibition in data set [2] turned out to be 100%. Also, the concentration for half-maximal inhibition (IC50) in data set [3] came out at 70 nM. Moreover, the values for the Activity in data set [1] and in [4] were 5.7% and -56.6%, respectively.
As to `Cc1nc(NC(=O)c2ccccc2)sc1C(=O)/C=C/c1cccc(Br)c1`, the inhibition in [2] was 42.5%. The Activity in [1] was found to be 5.7%.
In the same order, the values of `COc1ccc(/C=C/C(=O)c2sc(NC(=O)c3ccccc3)nc2C)cc1OC` are 70.2% and 6.4%.
On to `Cc1nc(NC(=O)c2ccccc2)sc1C(=O)/C=C/c1ccc(N(C)C)cc1`, for which the inhibition in data set [2] stood at 88.2%. The IC50 in data set [3] was found to be 640 nM. The Activity is 0% in data set [1] and -12.2% in data set [4].
With `Cc1nc(NC(=O)c2ccc(F)cc2)sc1C(=O)/C=C/c1cccs1`, in [2], the inhibition is 81.7%. Moreover, the Activity in data set [1] was 0%.
Turning to `COc1ccc(C(=O)Nc2nc(C)c(C(=O)/C=C/c3ccc(F)cc3)s2)cc1`, the inhibition in data set [2] came to 88.2%. Further, the IC50 in data set [3] came to 560 nM. Also, the Activity worked out at 2.1% in data set [1] and 0.3% in data set [4].
In the same order, the values of `Cc1nc(NC(=O)c2ccccc2)sc1C(=O)/C=C/c1ccc(F)cc1` are 98%, 140 nM, 3% and -12.5%.
For `Cc1nc(NC(=O)c2ccccc2)sc1C(=O)/C=C/c1cccc([N+](=O)[O-])c1`, the inhibition in [2] is 98%. For the same molecule, the 50% inhibitory concentration (IC50) in data set [3] is 240 nM. Besides, the Activity was 8.7% in data set [1] and -40.2% in data set [4].
In the same order, the values of `Cc1ccc(/C=C/C(=O)c2sc(NC(=O)c3ccc(F)cc3)nc2C)cc1` are 91.5%, 540 nM, 15% and -56.3%.
For the molecule `O=C1O[C@H]([C@@H](O)CO)C(O)=C1O`, in [1], the Activity was found to be 60.5%.
Take `Cc1nc(NC(=O)c2ccc(F)cc2)sc1C(=O)/C=C/c1cc2c(cc1Br)OCO2`: the inhibition in data set [2] amounted to 50.6%. Further, in data set [1], the Activity turned out to be 5.1%.
In the case of `Cc1nc(NC(=O)c2ccccc2)sc1C(=O)/C=C/c1ccccc1`, the inhibition in [2] came to 73.5%. Further, the Activity in [1] turned out to be 2.5%.
Regarding `Cc1nc(NC(=O)c2ccccc2)sc1C(=O)/C=C/c1cc2c(cc1Br)OCO2`, the inhibition in data set [2] amounted to 100%. Further, the half-maximal inhibitory concentration (IC50) in data set [3] amounted to 120 nM. Further, the Activity in data set [1] was 5.4%; in [4] it was 1.2%.
Regarding `Cc1nc(NC(=O)c2ccc(F)cc2)sc1C(=O)/C=C/c1ccco1`, the inhibition in data set [2] is 65.3%. Also, the Activity in [1] came out at 8.2%.
For `Cc1nc(NC(=O)c2ccccc2)sc1C(=O)/C=C/c1ccco1`, in that order: 57.2% and 3.4%.
Consider `COc1ccc(C(=O)Nc2nc(C)c(C(=O)/C=C/c3ccc(C)cc3)s2)cc1`, for which, in [2], the inhibition was 100%. Moreover, the IC50 in data set [3] turned out to be 80 nM. The Activity in [1] came to 5.5%; in data set [4] it was 5.6%.
For `Cc1nc(NC(=O)c2ccc(F)cc2)sc1C(=O)/C=C/c1ccc(N(C)C)cc1`, the inhibition in [2] stood at 70.2%. Also, the Activity in data set [1] was 3.9%.
For `COc1ccc(/C=C/C(=O)c2sc(NC(=O)c3ccccc3)nc2C)cc1`, in that order: 58.8% and 7.9%.
In the same order, the values of `Cc1nc(NC(=O)c2ccc([N+](=O)[O-])cc2)sc1C(=O)/C=C/c1ccc(Cl)cc1` are 48.8% and 2.4%.

B1: Polyunsaturated fatty acid 5-lipoxygenase (Homo sapiens), P09917 (protein)
chain: T1 sequence (whole entry)
A word on the Km: it is the concentration of substrate that gives half-maximal velocity. In general, Vmax refers to the top rate of the reaction or transport when substrate is in excess. With B1, the Michaelis-Menten constant (Km) in [5] was found to be 1.8 µM; in [6], 2.1 µM; in data set [13], 0.43 µM; in data set [14] it was 1.41 µM; in [15], 0.53 µM; in [16] it was 2.91 µM. In addition, the maximum rate (Vmax) came to 0.29 nmol/min in data set [7]; 0.25 nmol/min in [8]; 0.32 nmol/min in data set [9]; 0.43 nmol/min in data set [10]; 0.31 nmol/min in data set [11]; 0.42 nmol/min in [12].
